Assays:
Clostridium ljungdahlii = assay: Syngas fermentation in stirred tank bioreactor, effect of vitamin feed rates on specific ethanol productivity; assay type: cell-based; settings: for effect of increasing feed rate on specific ethanol productivity: Experiment 4, vitamin B5 feed held constant below about 30 ug/g of cells, vitamin B1 and B7 feeds increased
Method: A synthesis gas containing CO. CO2 and H2 was continuously introduced into a stirred tank bioreactor containing Clostridium ljungdahlii (Experiments 1-4), along with a liquid medium containing trace metals and salts as described herein. Vitamins were provided using dedicated feed lines. A New Brunswick Bioflow reactor containing the fermentation medium was started with actively growing Clostridium ljungdahlii (Experiments 1-4). The rate of agitation of the reactor was set to 800 rpm at the start of the experiment and this agitation rate was maintained throughout the experiment. Feed gas flow to the reactor was increased based on the H2 and CO uptake of the culture. Temperature in the bioreactor was maintained at about 38° C. throughout the experiment. Samples of gas feed into the bioreactor and off-gas from the bioreactor and fermentation broth in the bioreactor were taken at intervals, for example feed gas, off-gas and fermentation broth were sampled about daily, once two hours and once four hours respectively. Above samples were analyzed for consumption or production of various gas components, broth acetic acid concentration, broth ethanol concentration and the optical density (cell density) of the culture. The unaroused volume of the reactor was maintained between 3000 to 3250 ml throughout the experiment. Further, the gas flow to the reactor was maintained at required gas flow rates by using a mass flow controller. The feed […] composition was 23% H2, 35% CO, 29% CO2 and 13% N2. In the following reactor runs, vitamins biotin, thiamine and pantothenate were feed to the reactor using a dedicated stream. Steady state conditions were maintained for a period of time greater than 5 times the cell retention time. Cell mass was essentially replaced 5 times before data collection phase started. After data set was collected, vitamin feed rate was adjusted, adjustment phase was repeated, and next data set was collected. Adjustment phase refers to an amount of time necessary for the culture to equilibrate to a change. In this experiment culture was allowed at least a 3-day adjustment phase. A cell recycle system (CRS) was attached to the reactor before the start of the experiment. During the experiment, medium feed rate was 3.0 to 6.0 ml/min, and through the CRS, 0-5 ml/min permeate was drawn out from the reactor. The following tables describe the vitamin feed rates and specific ethanol productivity (SEP).

[1] = test system: Clostridium autoethanogenum; assay: Fermentation trials, effect of vitamin feed rates and low cell retention time on specific ethanol productivity; assay type: cell-based
Method: Fermentation trials were conducted with Clostridium autoethanogenum with Biotin (B7) and Thiamine (B1) feeds held at lower base levels with increasing Pantothenate (B5) Feeds.

Compound | effect of increasing feed rate on specific ethanol productivity (Clostridium ljungdahlii) | SEP (specific ethanol productivity) (Clostridium ljungdahlii; Experiment 3, feeds (μg/g cells produced): pantothenate 19.33, biotin 17.76, thiamine 13.36) | SEP (specific ethanol productivity) (Clostridium ljungdahlii; Experiment 3, feeds (μg/g cells produced): pantothenate 37.91, biotin 17.42, thiamine 13.10) | SEP (specific ethanol productivity) (Clostridium ljungdahlii; Experiment 3, feeds (μg/g cells produced): pantothenate 55.49, biotin 17.00, thiamine 12.79) | SEP (specific ethanol productivity) (Clostridium ljungdahlii; Experiment 3, feeds (μg/g cells produced): pantothenate 72.34, biotin 16.62, thiamine 12.50) | SEP (specific ethanol productivity) (Clostridium ljungdahlii; Experiment 3, feeds (μg/g cells produced): pantothenate 108.13, biotin 19.87, thiamine 14.95) | SEP (specific ethanol productivity) (Clostridium ljungdahlii; Experiment 3, feeds (μg/g cells produced): pantothenate 125.67, biotin 20.55, thiamine 14.76) | specific ethanol productivity increase (Clostridium ljungdahlii; Experiment 3, vitamin B5 feed from about 20 to about 108 ug/g of cells produced, vitamin B1 and B7 feeds under 20 ug/g) | SEP (specific ethanol productivity) ([1]; feeds (μg/g cells produced): pantothenate 48.47, biotin 29.54, thiamine 23.10, cell retention time 13.45 hrs) | SEP (specific ethanol productivity) ([1]; feeds (μg/g cells produced): pantothenate 58.08, biotin 26.65, thiamine 20.84, cell retention time 13.27 hrs) | SEP (specific ethanol productivity) ([1]; feeds (μg/g cells produced): pantothenate 62.90, biotin 23.04, thiamine 18.01, cell retention time 12.44 hrs) | SEP (specific ethanol productivity) ([1]; feeds (μg/g cells produced): pantothenate 68.78, biotin 25.19, thiamine 19.70, cell retention time 11.36 hrs) | SEP (specific ethanol productivity) ([1]; feeds (μg/g cells produced): pantothenate 70.67, biotin 21.62, thiamine 16.91, cell retention time 11.22 hrs) | SEP (specific ethanol productivity) ([1]; feeds (μg/g cells produced): pantothenate 81.90, biotin 18.79, thiamine 14.69, cell retention time 9.81 hrs) | specific ethanol productivity increase ([1]; vitamin B5 feed from about 48 to about 82 ug/g of cells produced, B1 and B7 under 30 then under 20 ug/g, cell retention time from about 13.5 to 9.8 hours)
O=C(O)CCCC[C@@H]1SC[C@@H]2NC(=O)N[C@@H]21 [Biotin, biotin] | did not increase specific ethanol productivity |  |  |  |  |  |  |  |  |  |  |  |  |  | 
CC(C)(CO)[C@@H](O)C(=O)NCCC(=O)O [Pantothenate, pantothenate] |  | 7.95 g/day/g cells | 8.64 g/day/g cells | 10.03 g/day/g cells | 10.33 g/day/g cells | 11.25 g/day/g cells | 11.15 g/day/g cells | about 42% | 8.08 g/day/g cells | 8.24 g/day/g cells | 8.51 g/day/g cells | 9.39 g/day/g cells | 9.70 g/day/g cells | 9.98 g/day/g cells | about 24%
Cc1ncc(C[n+]2csc(CCO)c2C)c(N)n1 [Thiamine, thiamine] | did not increase specific ethanol productivity |  |  |  |  |  |  |  |  |  |  |  |  |  | 

Source: patent US20220177931A1, “PROCESS AND COMPOSITION FOR CONTROLLING ETHANOL PRODUCTION” (priority 2020, published 2022)
